Reference: PubChem BioAssay AID1259411 (Chemical Carcinogenesis Research Information System (CCRIS), 2018)
Calls of active or inactive are those of the source. The rule behind the calls is not given here.

System: rodent carcinogenicity bioassays, tumor incidence
Test: CCRIS carcinogenicity studies
Procedure, shortened: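 NCI-built, expert-reviewed records of carcinogenicity and related test outcomes (mutagenicity, tumor promotion/inhibition) compiled from published and report sources, historical span 1985-2011, not updated.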

Question: For `O=[N+]([O-])c1ccc2c(c1)-c1ccc([N+](=O)[O-])c3cccc-2c13`, which carcinogen call (Species: RAT, Strain/Sex: F344/DUCRJ/MALE, Route: PULMONARY IMPLANT, Dose: 0, 0.05, 0.1, 0.2 MG AS A SUSPENSION IN EQUAL VOL OF BEESWAX AND TRICAPRYLIN IMPLANTED IN LEFT LUNG (STUDY DURATION: 70, Dose: 0, 0.05, 0.1, 0.2 MG AS A SUSPENSION IN EQUAL VOL OF BEESWAX AND TRICAPRYLIN IMPLANTED IN LEFT LUNG (STUDY DURATION: 70, Tumor Site: Type of Lesion: LUNG: TUMOR) is on record?
Answer: active; positive

Question: And the carcinogen call (Species: RAT, Strain/Sex: F344/MALE, Route: LUNG IMPLANT, Dose: 0, 50, 100, 200 UG IN BEESWAX/TRICAPRYLIN INTO LOWER LEFT LUNG ONCE (STUDY DURATION: 100 WK), Dose: 0, 50, 100, 200 UG IN BEESWAX/TRICAPRYLIN INTO LOWER LEFT LUNG ONCE (STUDY DURATION: 100 WK), Tumor Site: Type of Lesion: LUNG: SQUAMOUS CELL CARCINOMA, ADENOSQUAMOUS CARCINOMA, TUMOR)?
Answer: active; positive

Question: And the carcinogen call (Species: RAT, Strain/Sex: F344/MALE, Route: PULMONARY IMPLANT, Dose: 0, 50, 100, 200 UG IN 50 µL BEESWAX/TRICAPRYLIN IMPLANTED FOR UP TO 100 WK (STUDY DURATION: 100 WK), Dose: 0, 50, 100, 200 UG IN 50 µL BEESWAX/TRICAPRYLIN IMPLANTED FOR UP TO 100 WK (STUDY DURATION: 100 WK), Tumor Site: Type of Lesion: LUNG: TUMOR)?
Answer: active; positive

Question: `C=CC(=O)O` was tested. Which carcinogen call (Species: MOUSE, Strain/Sex: C3H/MALE, Route: DERMAL, Dose: 0, 0.20 MG IN 25 µL ACETONE 3/WK FOR LIFESPAN (STUDY DURATION: LIFESPAN)) did it give?
Answer: inactive; negative

Question: What about the carcinogen call (Species: RAT, Strain/Sex: WISTAR/FEMALE, Route: ORAL, Dose: 0, 120, 400, 1200 PPM IN DRINKING WATER FOR 28 MO (STUDY DURATION: 28 MO), Dose: 0, 120, 400, 1200 PPM IN DRINKING WATER FOR 28 MO (STUDY DURATION: 28 MO)) of the same compound?
Answer: inactive; negative

Question: What about the carcinogen call (Species: RAT, Strain/Sex: WISTAR/MALE, Route: ORAL, Dose: 0, 120, 400, 1200 PPM IN DRINKING WATER FOR 26 MO (STUDY DURATION: 26 MO), Dose: 0, 120, 400, 1200 PPM IN DRINKING WATER FOR 26 MO (STUDY DURATION: 26 MO)) of the same compound?
Answer: inactive; negative

Question: `Clc1cccc(-c2cccc(Cl)c2)c1` was tested. Which carcinogen call (Species: RAT, Strain/Sex: WISTAR/MALE, Route: ORAL, Dose: 0, 100 PPM IN DIET FOR DURATION OF STUDY (STUDY DURATION: 832 D)) did it give?
Answer: inactive; negative

Question: With `C[C@]12CC[C@@H]3c4ccc(O)cc4CC[C@H]3[C@@H]1CC[C@@H]2O` as the compound, how does the carcinogen call (Species: GUINEA PIG, Route: SUBCUTANEOUS IMPLANT, Tumor Site: Type of Lesion: UTERUS) read?
Answer: active; positive

Question: And the carcinogen call (Species: HAMSTER, Route: SUBCUTANEOUS IMPLANT, Tumor Site: Type of Lesion: KIDNEY)?
Answer: active; positive

Question: And the carcinogen call (Species: HAMSTER, Strain/Sex: SYRIAN/MALE, Route: SUBCUTANEOUS IMPLANT, Dose: 0, 20 MG IN PELLETS IMPLANTED EVERY 2.5 MO FOR 9 MO (STUDY DURATION: 9 MO), Tumor Site: Type of Lesion: KIDNEY: TUMOR)?
Answer: active; positive

Question: What about the carcinogen call (Species: MOUSE, Route: ORAL, SUBCUTANEOUS IMPLANT, Tumor Site: Type of Lesion: CERVIX, THYMUS GLAND, MAMMARY GLAND, UTERUS, VAGINA, Tumor Site: Type of Lesion: CERVIX, THYMUS GLAND, MAMMARY GLAND, UTERUS, VAGINA) of the same compound?
Answer: active; positive

Question: And the carcinogen call (Species: MOUSE, Route: SUBCUTANEOUS, Tumor Site: Type of Lesion: LYMPHATIC SYSTEM)?
Answer: active; positive

Question: And the carcinogen call (Species: MOUSE, Strain/Sex: BALB/CCRGL/FEMALE, Route: SUBCUTANEOUS, Dose: 5 UG DAILY FOR 5 D BEGINNING 16 HR AFTER BIRTH (STUDY DURATION: 20 MO), Tumor Site: Type of Lesion: CERVICOVAGINAL TRACT: CARCINOMA (16/37))?
Answer: active; positive

Question: And the carcinogen call (Species: RAT, Route: SUBCUTANEOUS IMPLANT, Tumor Site: Type of Lesion: MAMMARY GLAND, PITUITARY GLAND)?
Answer: active; positive

Question: For `COc1ccccc1[N+](=O)[O-]`, which carcinogen call (Species: MOUSE, Strain/Sex: B6C3F1/MALE, Route: ORAL, Dose: 0, 666, 2000, 6000 PPM IN DIET FOR 103 WK (STUDY DURATION: 103 WK), Dose: 0, 666, 2000, 6000 PPM IN DIET FOR 103 WK (STUDY DURATION: 103 WK), Tumor Site: Type of Lesion: LIVER: HEPATOBLASTOMA, HEPATOCELLULAR ADENOMA) is on record?
Answer: active; positive

Question: What about the carcinogen call (Species: RAT, Strain/Sex: F344/N/FEMALE, Route: ORAL, Dose: 0, 222, 666, 2000 PPM IN DIET FOR 103 WK (STUDY DURATION: 103 WK), Dose: 0, 222, 666, 2000 PPM IN DIET FOR 103 WK (STUDY DURATION: 103 WK)) of the same compound?
Answer: inactive; negative

Question: What about the carcinogen call (Species: RAT, Strain/Sex: F344/N/FEMALE, Route: ORAL, Dose: 0, 6000, 18,000 PPM IN DIET FOR 27 WK (STUDY DURATION: 104 WK), Dose: 0, 6000, 18,000 PPM IN DIET FOR 27 WK (STUDY DURATION: 104 WK), Tumor Site: Type of Lesion: COLON: ADENOMATOUS POLYP, URINARY BLADDER: CARCINOMA, SARCOMA) of the same compound?
Answer: active; positive

Question: And the carcinogen call (Species: RAT, Strain/Sex: F344/N/MALE, Route: ORAL, Dose: 0, 222, 666, 2000 PPM IN DIET FOR 103 WK (STUDY DURATION: 103 WK), Dose: 0, 222, 666, 2000 PPM IN DIET FOR 103 WK (STUDY DURATION: 103 WK))?
Answer: inactive; negative

Question: What about the carcinogen call (Species: RAT, Strain/Sex: F344/N/MALE, Route: ORAL, Dose: 0, 6000, 18,000 PPM IN DIET FOR 27 WK (STUDY DURATION: 104 WK), Dose: 0, 6000, 18,000 PPM IN DIET FOR 27 WK (STUDY DURATION: 104 WK), Tumor Site: Type of Lesion: COLON: ADENOMATOUS POLYP, KIDNEY: CARCINOMA, URINARY BLADDER: CARCINOMA, SARCOMA, Tumor Site: Type of Lesion: COLON: ADENOMATOUS POLYP, KIDNEY: CARCINOMA, URINARY BLADDER: CARCINOMA, SARCOMA) of the same compound?
Answer: active; positive

Question: `CCN=[N+](C)[O-]` was tested. Which carcinogen call (Species: RAT, Strain/Sex: F344/MALE, Route: ORAL, Dose: 0, 12, 48 MG/ML IN A NEUTRAL DEIONIZED DRINKING WATER SOLUTION 5 D/WK FOR 30 WK (TOTAL DOSE 36; 144 MG) (STUDY DURATION:, Dose: 0, 12, 48 MG/ML IN A NEUTRAL DEIONIZED DRINKING WATER SOLUTION 5 D/WK FOR 30 WK (TOTAL DOSE 36; 144 MG) (STUDY DURATION:, Tumor Site: Type of Lesion: LIVER: CARCINOMA, HEMANGIOSARCOMA, KIDNEY: TUMOR) did it give?
Answer: active; positive

Question: What does the source list for `C=C(C)C#N`?
Answer: carcinogen call (Species: MOUSE, Strain/Sex: B6C3F1/FEMALE, Route: GAVAGE, Dose: 0, 1.5, 3, 6 MG/KG 5 D/WK FOR 104-105 WK (STUDY DURATION: 104-105 WK), Dose: 0, 1.5, 3, 6 MG/KG 5 D/WK FOR 104-105 WK (STUDY DURATION: 104-105 WK)): inactive; negative; carcinogen call (Species: MOUSE, Strain/Sex: B6C3F1/MALE, Route: GAVAGE, Dose: 0, 1.5, 3, 6 MG/KG 5 D/WK FOR 104-105 WK (STUDY DURATION: 104-105 WK), Dose: 0, 1.5, 3, 6 MG/KG 5 D/WK FOR 104-105 WK (STUDY DURATION: 104-105 WK)): inactive; negative; carcinogen call (Species: RAT, Strain/Sex: F344/FEMALE, Route: GAVAGE, Dose: 0, 3, 10, 30 MG/KG 5 D/WK FOR 104-105 WK (STUDY DURATION: 104-105 WK), Dose: 0, 3, 10, 30 MG/KG 5 D/WK FOR 104-105 WK (STUDY DURATION: 104-105 WK)): inactive; negative; carcinogen call (Species: RAT, Strain/Sex: F344/MALE, Route: GAVAGE, Dose: 0, 3, 10, 30 MG/KG 5 D/WK FOR 104-105 WK (STUDY DURATION: 104-105 WK), Dose: 0, 3, 10, 30 MG/KG 5 D/WK FOR 104-105 WK (STUDY DURATION: 104-105 WK)): inactive; negative

Question: Which results are given for `O=P1(N(CCCl)CCCl)NCCCO1` (stereo unspecified)?
Answer: carcinogen call (Species: FISH, Strain/Sex: SHASTA RAINBOW TROUT/MALE, FEMALE, Route: ORAL, Dose: 0, 200 PPM IN DIET FOR 18 MO (STUDY DURATION: 18 MO)): inactive; negative; carcinogen call (Species: HUMAN, Route: ORAL, Tumor Site: Type of Lesion: URINARY BLADDER): active; positive; carcinogen call (Species: MOUSE, Strain/Sex: NMRI/FEMALE, Route: SUBCUTANEOUS, Dose: 0, 13, 26 MG/KG IN SALINE 1/WK FOR LIFETIME (STUDY DURATION: LIFETIME), Dose: 0, 13, 26 MG/KG IN SALINE 1/WK FOR LIFETIME (STUDY DURATION: LIFETIME), Tumor Site: Type of Lesion: LYMPHATIC SYSTEM: MALIGNANT LEUKEMIA): active; positive; carcinogen call (Species: MOUSE, Strain/Sex: NMRI/FEMALE, Route: SUBCUTANEOUS, Dose: 26 MG/KG 1/WK FOR 52 WK, Tumor Site: Type of Lesion: MAMMARY GLAND: CARCINOMA, MULTIPLE SITES: CARCINOMA, SARCOMA): active; positive; carcinogen call (Species: RAT, Strain/Sex: BR46/MALE, Route: INTRAVENOUS, Dose: 15 MG/KG 1/WK OR 5 DOSES OF 33 MG/KG EVERY 2 WK, Tumor Site: Type of Lesion: MULTIPLE SITES): active; positive; carcinogen call (Species: RAT, Strain/Sex: SPRAGUE-DAWLEY/MALE,FEMALE, Route: ORAL, Dose: 0.31, 0.63, 1.25, 2.5 MG/KG 5/WK, Dose: 0.31, 0.63, 1.25, 2.5 MG/KG 5/WK, Tumor Site: Type of Lesion: URINARY BLADDER: PAPILLOMA, TRANSITIONAL CELL CARCINOMA): active; positive; carcinogen call (Species: RAT, Strain/Sex: SPRAGUE-DAWLEY/MALE, Route: INTRAVENOUS, Dose: 13 MG/KG 1/WK, Tumor Site: Type of Lesion: MULTIPLE SITES): active; positive
